According to ChEMBL document CHEMBL5252632, “Small molecule-based fluorescent probes for the detection of α-Synuclein aggregation states” (Bioorg Med Chem Lett, 2023):

Legend:
Alpha-synuclein [1] = molecular target: T1, Alpha-synuclein (Homo sapiens, UniProt P37840); assay: Binding affinity to human recombinant Alpha-synuclein assessed as dissociation constant by fluorometric method
[2] = molecular target: Amyloid-beta precursor protein (Homo sapiens, UniProt P05067); assay: Binding affinity to amyloid beta (1 to 40) (unknown origin) aggregates assessed as dissociation constant
Chain of Amyloid-beta precursor protein (P05067 whole entry): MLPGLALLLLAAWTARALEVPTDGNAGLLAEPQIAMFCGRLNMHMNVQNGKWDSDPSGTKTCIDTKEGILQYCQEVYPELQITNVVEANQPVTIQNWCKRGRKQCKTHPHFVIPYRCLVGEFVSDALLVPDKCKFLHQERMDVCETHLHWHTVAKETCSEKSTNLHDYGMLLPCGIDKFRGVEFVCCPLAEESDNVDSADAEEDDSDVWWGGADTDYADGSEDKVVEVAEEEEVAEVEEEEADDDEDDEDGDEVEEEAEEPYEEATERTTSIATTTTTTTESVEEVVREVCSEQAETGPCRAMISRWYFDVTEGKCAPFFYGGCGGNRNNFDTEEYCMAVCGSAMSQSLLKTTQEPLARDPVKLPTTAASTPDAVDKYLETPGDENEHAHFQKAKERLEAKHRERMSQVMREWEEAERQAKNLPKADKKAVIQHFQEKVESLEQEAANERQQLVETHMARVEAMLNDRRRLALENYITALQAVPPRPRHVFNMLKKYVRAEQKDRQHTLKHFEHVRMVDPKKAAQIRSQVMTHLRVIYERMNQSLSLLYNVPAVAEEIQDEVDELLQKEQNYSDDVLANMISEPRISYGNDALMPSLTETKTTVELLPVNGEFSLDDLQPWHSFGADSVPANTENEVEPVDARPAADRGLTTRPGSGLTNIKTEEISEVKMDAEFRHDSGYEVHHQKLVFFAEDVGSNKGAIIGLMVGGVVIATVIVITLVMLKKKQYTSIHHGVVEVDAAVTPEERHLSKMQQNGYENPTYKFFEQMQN

Alpha-synuclein [3] = molecular target: T1, Alpha-synuclein; assay: Binding affinity to Alpha-synuclein (unknown origin) assessed as dissociation constant
Alpha-synuclein [4] = molecular target: T1, Alpha-synuclein; assay: Binding affinity to C-terminal His6-tagged human Alpha-synuclein fibrils (1 to 97 residues) expressed in Escherichia coli assessed as association constant by chromatography method

SMILES: O=S(=O)(O)c1cccc2c(-c3ccc(Nc4ccccc4)c4c(S(=O)(=O)O)cccc34)ccc(Nc3ccccc3)c12
- Kd (Alpha-synuclein [1]): 8.6 µM

SMILES: COc1ccc2nc(-c3ccc(N4CCCC4)cc3)sc2c1
- Kd [2]: 0.22 µM

SMILES: COc1ccc2c(c1)sc(-c1ccc(N3CCCCCC3)cc1)[n+]2C
- Kd (Alpha-synuclein [3]): 118 µM

SMILES: COc1ccc2nc(-c3ccc(N4CCCCC4)cc3)sc2c1
- Kd [2]: 0.22 µM

SMILES: COc1ccc2nc(-c3ccc(N(C)C)cc3)sc2c1
- Kd [2]: 0.22 µM

SMILES: COc1ccc2c(c1)sc(-c1ccc(N3CCCCC3)cc1)[n+]2C
- Kd (Alpha-synuclein [3]): 118 µM

SMILES: CN(C)c1ccc2nc(/C=C/C=C/C=C(C#N)C#N)sc2c1
- Kd [2]: 0.048 µM

SMILES: OCCOC(=C\C=C1N(c2ccccc2)c2cc3ccccc3cc2N1c1ccccc1)/C=C/c1n(-c2ccccc2)c2cc3ccccc3cc2[n+]1-c1ccccc1
- Ka (Alpha-synuclein [4]): 380000 M⁻¹

SMILES: COc1ccc2c(c1)sc(-c1ccc(N3CCCCCCC3)cc1)[n+]2C
- Kd (Alpha-synuclein [3]): 118 µM

SMILES: COc1ccc2nc(-c3ccc(N4CCCCCC4)cc3)sc2c1
- Kd [2]: 0.22 µM

SMILES: COc1ccc2c(c1)sc(-c1ccc(N3CCOCC3)cc1)[n+]2C
- Kd (Alpha-synuclein [3]): 118 µM

SMILES: O=S(=O)(O)c1ccc2cc(Nc3ccccc3)ccc2c1
- Kd (Alpha-synuclein [1]): 8.8 µM

SMILES: COc1ccc2nc(-c3ccc(N4CCOCC4)cc3)sc2c1
- Kd [2]: 0.22 µM

SMILES: COc1ccc2nc(-c3ccc(N4CCCCCCC4)cc3)sc2c1
- Kd [2]: 0.22 µM

SMILES: COc1ccc2c(c1)sc(-c1ccc(N(C)C)cc1)[n+]2C
- Kd (Alpha-synuclein [3]): 118 µM
